Data on nine compounds can be found in ChEMBL document CHEMBL4130595, “Antitubercular Nitroimidazoles Revisited: Synthesis and Activity of the Authentic 3-Nitro Isomer of Pretomanid” (ACS Med Chem Lett, 2017).

For one test, the system named is Vero. The test is described as follows: Cytotoxicity against African green monkey Vero cells after 72 hrs by MTS/PMS assay. In kind it is cell-based. Conditions: Chlorocebus sabaeus.
Test [1] relates to Mycobacterium tuberculosis. The test is described as follows: Antitubercular activity against Mycobacterium tuberculosis H37Rv ATCC 27294 incubated for 10 days under low oxygen condition followed by second incubation under aerobic condition for 28 hrs by LORA. In kind it is functional.
Test [2] relates to Mycobacterium tuberculosis. The test is described as follows: Antitubercular activity against Mycobacterium tuberculosis H37Rv measured after 7 days under aerobic condition by alamar blue assay. The test is classed as functional. To be noted: 168 h.

The structures appear in SMILES notation. Converted amounts (≈) assume the structure as drawn.

Consider `Cc1cc(CO[C@@H]2COc3nc([N+](=O)[O-])cn3C2)ccc1OC(F)(F)F`, for which the half-maximal inhibitory concentration (IC50) (as a rule, the concentration that inhibits the measured activity by half) in the test with Vero is over 128 µM. In addition, the values for the MIC in test [1] and in test [2] were 1 µM (≈ 0.373 µg/mL) and 0.063 µM (≈ 0.0235 µg/mL), respectively.
In the same order, the values of `O=[N+]([O-])c1cnc2n1C[C@H](OCc1ccc(OC(F)(F)F)cc1)CO2` are over 128 µM, over 128 µM and over 128 µM.
In the same order, the values of `O=[N+]([O-])c1cnc2n1C[C@H](O)CO2` are over 128 µM, over 128 µM and over 128 µM.
In the same order, the values of `COc1nc2ccc(Br)cc2cc1[C@@H](c1ccccc1)[C@@](O)(CCN(C)C)c1cccc2ccccc12` [BEDAQUILINE] are over 10 µM, 0.11 µM (≈ 0.0611 µg/mL) and 0.07 µM (≈ 0.0389 µg/mL).
For `NNC(=O)c1ccncc1` [ISONIAZID], the MIC (commonly the smallest concentration in the dilution series that meets the test's criterion for growth inhibition) in test [1] is over 128 µM; in test [2] it was 0.34 µM (≈ 0.0466 µg/mL).
The corresponding values for `CC(=O)NC[C@H]1CN(c2ccc(N3CCOCC3)c(F)c2)C(=O)O1` [LINEZOLID] are 2.8 µM (≈ 0.945 µg/mL) and 2.9 µM (≈ 0.978 µg/mL).
The corresponding values for `Cc1ncc([N+](=O)[O-])n1CCO` [METRONIDAZOLE] are 79 µM (≈ 13.5 µg/mL) and over 512 µM.
The corresponding values for `COc1c(N2C[C@@H]3CCCN[C@@H]3C2)c(F)cc2c(=O)c(C(=O)O)cn(C3CC3)c12` [MOXIFLOXACIN] are over 128 µM and 0.42 µM (≈ 0.169 µg/mL).
`CO[C@H]1/C=C/O[C@@]2(C)Oc3c(C)c(O)c4c(O)c(c(/C=N/N5CCN(C)CC5)c(O)c4c3C2=O)NC(=O)/C(C)=C\C=C\[C@H](C)[C@H](O)[C@@H](C)[C@@H](O)[C@@H](C)[C@H](OC(C)=O)[C@@H]1C` [RIFAMPIN] had an IC50 with Vero of over 100 µM. In addition, the MIC in test [1] stood at 0.64 µM (≈ 0.527 µg/mL); in test [2] it was 0.049 µM (≈ 0.0403 µg/mL).
